The assay concerns Huh7 psiCHECK-miR122 Renilla luciferase reporter, 48 h. The assay is described as follows: miR-122 inhibitors in Huh7 reporter cells, dose response, cell-based, Huh7 psiCHECK-miR122, Renilla luciferase, cherry-pick (AID 652053).
As for `O=C(c1cccc(F)c1)N1C[C@H]2[C@@H](c3ccccc31)[C@@H](CO)N2C(=O)c1ccc(F)cc1`, the AC40 was 1.08 µM.

Turning to `Cc1ccc(S(=O)(=O)N2CC[C@@H]3[C@@H](CO)Nc4ccc(-c5ccccc5F)cc4[C@@H]32)cc1`, the AC40 is 1.69 µM.

`CC(=O)c1c(C)[nH]c(C(=O)Nc2ccc(C)c(S(=O)(=O)Nc3ccc(C)cc3C)c2)c1C`: the AC40 is 8.45 µM.

Turning to `Cc1ccc(S(=O)(=O)NC23CC4CC(CC(C4)C2)C3)cc1`, the AC40 is 2.15 µM.

Turning to `Cc1ccc(C)c(S(=O)(=O)Nc2ccc(C(=O)N3CCC3)cc2)c1`, the AC40 is 2.82 µM.

With `COc1ccccc1CN(C)C(=O)c1cccc(S(=O)(=O)N2CCCc3ccccc32)c1`, the AC40 was 4.57 µM.

As for `Cc1ccc(C(=O)Nc2ccccc2-c2ccccc2)cc1S(=O)(=O)Nc1ccccc1`, the AC40 is 3.64 µM.

As to `COc1cccc(N2CCN(C(=O)c3oc4ccccc4c3NC(=O)Cc3ccc(OC)c(OC)c3)CC2)c1`, the AC40 was 1.62 µM.

Regarding `Cc1ccccc1-c1cnc(C(O)c2ccc(F)c(F)c2)[nH]1` (configuration not stated), the AC40 was 6.78 µM.

`COc1ccc(C)cc1S(=O)(=O)Nc1cc(Cl)ccc1Cl`: the AC40 is 2.5 µM.

With `Cc1ccc(C(=O)Nc2ccc(Cl)cc2C(=O)c2ccccc2)cc1`, the AC40 was 18.6 µM.

With `C[C@H](CO)N1C[C@H](C)[C@@H](CN(C)CC2CCCCC2)Oc2c(NC(=O)C3CC3)cccc2C1=O`, the AC40 was 0.602 µM.

With `O=S1(=O)CCC(NS(=O)(=O)c2ccc3ccccc3c2)C1` (configuration not stated), the AC40 was 13.4 µM.

In the case of `COc1ccccc1CNC(=O)C[C@@H]1CC[C@H]2[C@H](COc3ccc(NC(C)=O)cc3C(=O)N2C)O1`, the AC40 was 22 µM.

Turning to `Cc1cc(Cl)c(S(=O)(=O)Nc2ccc3c(c2)OCO3)cc1OCC(=O)NC1CCCCC1`, the AC40 is 5.8 µM.

For the compound `Cc1ccc(S(=O)(=O)Nc2ccc3c(c2)CC(=O)N([C@H](C)CO)C[C@@H](C)[C@H](CN(C)Cc2ccc(C(=O)Nc4ccccc4N)cc2)O3)cc1`, the AC40 is 17.2 µM.

As to `Cn1c(=O)n(C)c2cc(NS(=O)(=O)c3ccc(C(C)(C)C)cc3)ccc21`, the AC40 is 8.31 µM.

For `CCOC(=O)c1c(NC(=O)c2ccccc2N(C)S(=O)(=O)c2ccccc2)sc2c1CCCC2`, the AC40 was 13.3 µM.

Regarding `CC(C)CNS(=O)(=O)c1ccc2c(c1)OCCO2`, the AC40 was 5.9 µM.

Take `CCN(CC(=O)NCc1cccs1)C(=O)c1cccc(S(=O)(=O)Nc2cccc(C)c2)c1`: the AC40 was 6.04 µM.

As for `COc1ccc(-c2ccc3c(c2)CN(C(=S)NCCc2ccccc2)Cc2cnnn2-3)cc1`, the AC40 is 2.2 µM.

For `COc1ccccc1NS(=O)(=O)c1cc(Cl)ccc1OC`, the AC40 is 15.9 µM.

On to `CCOCC(=O)Nc1c(C(=O)N2CCN(c3ncccn3)CC2)oc2ccccc12`, for which the AC40 is 0.431 µM.

With `Cc1cc(Br)ccc1NC(=S)NCCc1ccccc1`, the AC40 was 9.65 µM.

Consider `COc1ccccc1CNS(=O)(=O)c1ccc(-c2cc(C)no2)cc1`, for which the AC40 was 10.8 µM.

`COc1ccc(C2CCCCCN2Cc2nc3ccccc3c(=O)n2CC(N)=O)cc1` (configuration not stated): the AC40 was 9.73 µM.

Take `O=S(=O)(NCCC1=CCCCC1)c1ccccc1Br`: the AC40 is 2.03 µM.

For the compound `CC(C)c1ccc(S(=O)(=O)Nc2ccc3c(c2)OCO3)cc1`, the AC40 is 2.71 µM.

As to `CN1CC(c2ccc(C#N)cc2)C2(COc3ccccc3C2=O)C12C(=O)Nc1ccccc12` (configuration not stated), the AC40 is 3.69 µM.

As for `COc1ccc(S(=O)(=O)NC2CCCCC2)cc1C`, the AC40 was 3.14 µM.

For `C[C@H](CO)N1C[C@H](C)[C@@H](CN(C)C(=O)Nc2ccc(F)cc2)Oc2c(NS(=O)(=O)c3ccccc3)cccc2C1=O`, the AC40 was 20.4 µM.

For `CCC(=O)Nc1ccc(S(=O)(=O)NCCc2ccccc2)cc1`, the AC40 was 10.7 µM.

As for `COc1ccc(S(=O)(=O)N(CC(=O)Nc2cc(C)on2)Cc2ccccc2)cc1`, the AC40 is 21.3 µM.

With `COc1cc(C)c(Cl)c(C)c1S(=O)(=O)NCc1cccnc1`, the AC40 is 2.3 µM.

For `C[C@@H]1CN([C@H](C)CO)C(=O)c2cc(NC(=O)c3ccncc3)ccc2O[C@@H]1CN(C)S(=O)(=O)c1ccc(Cl)cc1`, the AC40 is 1.63 µM.

Take `O=S(=O)(Nc1ccc(C(O)(C(F)(F)F)C(F)(F)F)cc1)c1cccc2cccnc12`: the AC40 is 9.64 µM.

For the compound `COc1cc(NS(=O)(=O)c2ccc(NC(=S)NC(=O)c3ccco3)cc2)nc(OC)n1`, the AC40 is 7.11 µM.

In the case of `CCNS(=O)(=O)c1ccc(NS(=O)(=O)c2cc(C)ccc2C)cc1`, the AC40 is 1.86 µM.

Take `Cc1cccc(NS(=O)(=O)c2cc3c(cc2C)NC(=O)CO3)c1`: the AC40 is 2.36 µM.

For the compound `Cc1ccc(C)c(S(=O)(=O)Nc2ccc(C(=O)N3CCOCC3)cc2)c1`, the AC40 is 7.88 µM.

On to `C[C@@H]1CN([C@H](C)CO)C(=O)Cc2cc(NC(=O)Nc3ccccc3)ccc2O[C@@H]1CN(C)C(=O)Nc1cccc2ccccc12`, for which the AC40 is 0.756 µM.

On to `O=S(Cc1ccccc1)CC(O)(c1ccc(Cl)cc1)c1ccc(Cl)cc1` (configuration not stated), for which the AC40 was 10.5 µM.

For the compound `Cc1cc(S(=O)(=O)Nc2ccc3cn[nH]c3c2)c(C)cc1Cl`, the AC40 was 2.11 µM.

In the case of `C[C@H](CO)N1C[C@H](C)[C@H](CN(C)Cc2ccc(C(=O)Nc3ccccc3N)cc2)Oc2c(cccc2N(C)C)C1=O`, the AC40 was 8.75 µM.

Turning to `Cc1cc(C)nc(N/C(=N\S(=O)(=O)Cc2ccccc2)Nc2ccccc2Br)n1`, the AC40 is 8.51 µM.

For `Cc1ccccc1S(=O)(=O)N1CC[C@@H]2[C@@H](CO)Nc3ccc(-c4ccc(F)cc4)cc3[C@@H]21`, the AC40 was 1 µM.

Regarding `O=C(Cc1ccccc1)N1C[C@@H]2[C@H](c3ccccc31)[C@H](CO)N2C(=O)Nc1ccc(F)cc1`, the AC40 is 4.71 µM.

As to `CC(C)NC(=O)Nc1cccc2c1O[C@@H](CN(C)Cc1ccc(C(F)(F)F)cc1)[C@H](C)CN([C@H](C)CO)C2=O`, the AC40 was 1.52 µM.

Regarding `C[C@H](CO)N1C[C@H](C)[C@@H](CN(C)Cc2ccc(C(=O)Nc3ccccc3N)cc2)Oc2c(NS(=O)(=O)c3ccccc3)cccc2C1=O`, the AC40 was 20.2 µM.

As to `C[C@H](CO)N1C[C@H](C)[C@@H](CN(C)Cc2ccc(C(=O)Nc3ccccc3N)cc2)Oc2ccc(N(C)C)cc2CC1=O`, the AC40 is 11.3 µM.

Take `COc1cc(S(=O)(=O)NC2CCCCC2)ccc1Cl`: the AC40 was 2.18 µM.

In the case of `Cc1ccc(O)c(NC(=O)c2cccc(S(=O)(=O)N3CCCCC3)c2)c1`, the AC40 is 2.39 µM.

On to `COc1ccccc1CNC(=O)C[C@H]1CC[C@H]2[C@@H](COc3ccc(NS(=O)(=O)c4ccc(C)cc4)cc3C(=O)N2C)O1`, for which the AC40 is 21.5 µM.

Take `Cc1noc(C)c1S(=O)(=O)N(C)C[C@@H]1Oc2c(NC(=O)c3cnccn3)cccc2C(=O)N([C@@H](C)CO)C[C@@H]1C`: the AC40 was 5.81 µM.

Take `CCOc1ccc(NS(=O)(=O)c2ccc(NC(=S)NC(=O)C(C)C)cc2)cc1`: the AC40 is 5.48 µM.

Consider `CCNS(=O)(=O)c1ccc2c3c(cccc13)C(=O)N2`, for which the AC40 was 11.6 µM.

Turning to `Cc1ccc(S(=O)(=O)NC2CCCCCC2)cc1`, the AC40 is 2.92 µM.

In the case of `Cc1cc(Cl)c(Cl)cc1S(=O)(=O)NCCCn1ccnc1`, the AC40 is 2.79 µM.

As to `CCCNC(=O)C[C@H]1CC[C@H]2[C@H](COc3ccc(NC(=O)c4ccc5c(c4)OCO5)cc3C(=O)N2C)O1`, the AC40 was 14.2 µM.

As to `C[C@H](CO)N1C[C@H](C)[C@H](CN(C)CC2CCCCC2)Oc2c(NC(=O)C3CCOCC3)cccc2C1=O`, the AC40 was 1.95 µM.

For the compound `CN1C(=O)c2cccc3c(S(=O)(=O)NCCc4ccccc4)ccc1c23`, the AC40 was 0.281 µM.

For the compound `FC(F)Sc1ccc(NC(=S)NC2CCCCC2)cc1`, the AC40 is 4.16 µM.

With `Cc1ccc(S(=O)(=O)NCCC2=CCCCC2)cc1`, the AC40 was 5.27 µM.

`C[C@H](CO)N1C[C@H](C)[C@@H](CN(C)C(=O)Nc2cccc3ccccc23)Oc2ccc(NC(=O)Nc3ccc(C(F)(F)F)cc3)cc2CC1=O`: the AC40 was 7.77 µM.

Consider `CCc1c(C(=O)NC2CCCCC2)[nH]c(C)c1C(C)=O`, for which the AC40 is 4.84 µM.

`COc1ccc(-c2cc(C(=O)N(C)Cc3ccccc3F)c3ccccc3n2)cc1OC`: the AC40 was 14.7 µM.

Consider `COc1ccc(S(=O)(=O)NCc2ccco2)c2ccccc12`, for which the AC40 was 2.62 µM.

Consider `CCc1c(C(=O)Nc2ccc(OC)cc2)[nH]c(C)c1C(C)=O`, for which the AC40 was 5.6 µM.

For `Cc1nn(C)c(C)c1S(=O)(=O)NCc1cccs1`, the AC40 is 13.9 µM.

Turning to `OCC1OC(n2cnc3c(NCc4ccccc4O)ncnc32)C(O)C1O` (configuration not stated), the AC40 is 3.86 µM.

For the compound `CCOC(=O)Nc1ccc(NS(=O)(=O)c2ccc(C)cc2)cc1`, the AC40 is 8.82 µM.

For `COc1ccc(NS(=O)(=O)c2ccc(OC)c3ccccc23)cn1`, the AC40 was 2.67 µM.

Consider `CC(C)CNS(=O)(=O)c1cc2c3c(c1)CCC(=O)N3CCC2`, for which the AC40 is 9.58 µM.

On to `COc1ccc(S(=O)(=O)Nc2ccc(-c3ccc4nnc(C)n4n3)cc2)c(OC)c1`, for which the AC40 was 4.03 µM.

Turning to `CCN(CC)S(=O)(=O)c1ccc(C)c(NCC(=O)Nc2ccc(C#N)c(Cl)c2)c1`, the AC40 is 1.77 µM.

For the compound `C/C(=N\Nc1ccccn1)c1ccc(S(=O)(=O)NCc2ccco2)cc1`, the AC40 was 6.97 µM.

In the case of `Cc1ccc(C)c(S(=O)(=O)NCC(c2ccc3c(c2)OCO3)N2CCOCC2)c1` (configuration not stated), the AC40 was 1.81 µM.

On to `O=C(c1ccccc1F)N1CC[C@@H]2[C@@H](CO)Nc3ccc(-c4cccc(F)c4)cc3[C@@H]21`, for which the AC40 was 1.29 µM.

With `CC(=O)Nc1ccc(S(=O)(=O)Nc2cccc(-c3nc4ccccc4o3)c2)cc1`, the AC40 was 6.93 µM.

For `Cc1cc(C)c(C)c(S(=O)(=O)Nc2ccc(O)cc2)c1C`, the AC40 was 6.69 µM.

As to `COc1ccc(CNS(=O)(=O)c2cc(-c3cc(C)no3)ccc2C(C)C)cc1`, the AC40 was 3.69 µM.

In the case of `Cc1ccc(-c2nnc(Nc3ccc4c(c3)OCO4)c3ccccc23)cc1S(N)(=O)=O`, the AC40 is 5.9 µM.

Turning to `Cc1ccc(S(=O)(=O)NCc2ccco2)c(C)c1C`, the AC40 is 1.79 µM.

For `O=S(=O)(c1ccc(F)cc1)N1C[C@H]2[C@@H](c3ccccc31)[C@@H](CO)N2Cc1ccc2c(c1)OCO2`, the AC40 was 4.82 µM.

Regarding `C[C@H](CO)N1C[C@H](C)[C@H](CN(C)Cc2ccc(C(=O)Nc3ccccc3N)cc2)Oc2ccc(NC(=O)Nc3cccc4ccccc34)cc2CC1=O`, the AC40 was 16.9 µM.

For `O=S(=O)(/N=C(/Nc1ccc(Cl)c(S(=O)(=O)N2CCOCC2)c1)c1ccc(F)cc1)c1ccccc1`, the AC40 was 0.864 µM.

For the compound `COc1ccc(C(=O)N2C[C@H]3[C@@H](c4ccccc42)[C@@H](CO)N3C(=O)c2ccc(F)cc2)cc1`, the AC40 is 0.631 µM.

Values taken from PubChem BioAssay AID652053 (Broad Institute, 2013).
